From paper PMC6566782, “Prodrugs for Skin Delivery of Menahydroquinone-4, an Active Form of Vitamin K2(20), Could Overcome the Photoinstability and Phototoxicity of Vitamin K2(20)” (International Journal of Molecular Sciences, 2019)
Structures can show the parent of a compound that is named as a salt. Where two headings read alike, the source gives them in different places.

Tests used:
[1] = Singlet oxygen generation assay (p-nitrosodimethylaniline-based ROS assay) after UVA irradiation; assay type: physicochemical; conditions: phosphate-buffered aqueous solution pH 7.4, UVA irradiation 0–15 J/cm^2
Procedure: It has been reported that singlet oxygen promotes the peroxidation of skin surface lipids, resulting in the induction of skin inflammation. Thus, we measured the irradiation intensity-dependent generation of singlet oxygen by MK-4, MKH-DMG, and MKH-SUC in phosphate-buffered aqueous solution after UVA irradiation using a p-nitrosodimethylaniline-based ROS assay (Figure 4).
MK-4 and MKH derivatives were dissolved in a phosphate buffer (NaPB, pH 7.4) containing 0.2% polyoxyethylene hydrogenated castor oil 40 (HCO 40, obtained as a gift sample from Nikko Chemicals Co., Ltd., Osaka, Japan), 2% dimethyl sulfoxide, and 0.1% glycerol. The solutions were treated according to the singlet oxygen assay method (The Japanese Center for the Validation of Alternative Methods, JaCVAM) and irradiated with UVA light from a CL-1000L UV Crosslinker (UVP, Upland, CA, USA). Absorbance was measured using an Infinite M200 PRO (Tecan Life Sciences, Zurich, Switzerland).

[2] = tested on: hepatocellular carcinoma (HCC) cells; set-up: method as in PMID 30013007; conditions: compared with MK-4 ref 17; cited from earlier work
HaCaT cells [3] = assay: Intracellular ROS generation assay (DCFH-DA) with or without UVA irradiation; assay type: cell-based, Human; conditions: UVA irradiation 15 J/cm^2
Procedure: (§1) The in vitro phototoxicity of MK-4 and MKH derivatives were assessed by measuring the intracellular ROS generation and the viability of human epidermal keratinocyte cells (HaCaT) after UVA irradiation in the presence or absence of MK-4 and MKH derivatives. Intracellular ROS generation was determined using the cell permeable probe 2′,7′-dichlorofluorescein diacetate (DCFH-DA), which rapidly reacts with hydroxyl radicals. Cells without drug treatment or UVA irradiation were used as the control. ROS generation and cell viability are shown in Figure 5 and Figure 6, respectively.
Intracellular ROS generation was measured using 2′,7′-dichlorofluorescein diacetate (DCFH-DA; Invitrogen, Carlsbad, CA, USA) as a fluorescent probe. HaCaT cells were seeded at 1.0 × 10^5 cells/well in 96-well plates and cultured overnight. Thereafter, cells were washed with PBS and incubated with 10 µM DCFH-DA solution in PBS at 37 °C for 1 h. Following incubation, test compound solutions in PBS described above were added to each well and re-incubated for 1 h. After incubation, cells were irradiated with UVA at an irradiation intensity of 15 J/cm^2 and the fluorescence intensity (Ex: 485 nm, Em: 530 nm) was measured using an Infinite M200 PRO (Tecan Life Sciences).

HaCaT cells [4] = assay: Cell viability assay (CellTiter-Glo) 24 h after UVA irradiation; assay type: cell-based, Human; conditions: 24 h after UVA irradiation 15 J/cm^2
Procedure: as §1
HaCaT cells were seeded at 1.0 × 10^5 cells/well in 96-well plates and cultured overnight. Thereafter, cells were washed with PBS, and test compound solutions in PBS described above were added to each well and re-incubated for 1 h. After incubation, cells were irradiated with UVA at an irradiation intensity of 15 J/cm^2. After irradiation, cells were washed twice with PBS and replaced in culture medium. After 24 h incubation, cell viability was measured using a CellTiter-Glo® Luminescent Cell Viability Assay (Promega, Madison, WI, USA).

[5] = Photostability in ethanol under monochromatic light of different wavelengths, LC-MS/MS; assay type: physicochemical; set-up: key: -: No decomposition; conditions: 1 µM in ethanol, 25 °C
Procedure: To evaluate the effect of irradiation wavelength on photostability of MK-4 and MKH-ester derivatives, 1 μM solutions of MK-4, MKH-DMG, and MKH-SUC in ethanol were irradiated with a xenon light source monochromatic light at 279, 341, 373, 404, or 435 nm, and the concentration of each compound was measured by LC-MS/MS. The log of concentration of each compound was plotted against irradiation energy (Figure 3), and the rates and half-life energies of degradation were obtained from slopes (Table 2). […] Hydrolytic degradations of MKH-DMG and MKH-SUC to their corresponding monoesters were accelerated only at the short wavelength of 279 nm (Figure 3B,C).
(§2) Solutions of MK-4 and MKH derivatives in ethanol (1 µM) were irradiated with artificial sunlight (SOLAX 100 W XC-100 B, Seric Ltd., Tokyo, Japan) at 12,000 lx in quartz cells. Illuminance was measured using a digital luminometer (LX-1108, Mother Tool). Irradiation samples (1 µM in ethanol) were irradiated with artificial sunlight at 12,000 lx, and with monochromatic light (279, 341, 373, 404, and 435 nm) using a multi-wavelength irradiation spectrometer (MM 3, Bunkoukeiki Co., Ltd., Tokyo, Japan). Irradiation intensity was measured using an irradiation energy measurement power meter (MM 3, Bunkoukeiki Co., Ltd.).
(§3) LC-MS/MS was performed using an LCMS-8050 Liquid Chromatograph Mass Spectrometer (Shimadzu, Kyoto, Japan) and Shimadzu HPLC System (system controller (CBM-20A), pump (LD-20AD), degasser (DGU-20As), UV detector (SPD-20A), and auto injector (SIL-20AC HT)). Separations were performed on a CAPCELL PAK C18 UG120 (3 μm, 2.0 mm × 100 mm, Shiseido Co., Ltd., Tokyo, Japan) using a mobile phase of 10 mmol/L ammonium acetate and 0.1% acetic acid in methanol and water (97:3) at a flow rate of 0.4 mL/min. Column temperature was maintained at 40 °C. The mass spectrometer was equipped with an electrospray ionization and was run in positive ion mode. Identification and quantitation were based on MS/MS-multiple reaction monitoring mode using transition ions as follows: m/z 445 → 187 for the [M+H]^+ MK-4 adduct, m/z 445 → 187 for the [M + H]^+ chromenol adduct, 619 → 58 for the [M + H]^+ MKH-DMG adduct, m/z 532 → 58 for the [M + H]^+ MKH-mono-DMG adduct, m/z 664 → 187 for the [M + H]^+ MKH-SUC adduct, m/z 564 → 187 for the [M + H]^+ MKH-mono-SUC adduct, and m/z 461 → 81 for the [M + H]^+ MKO adduct.

[6] = Photostability in ethanol under artificial sunlight (12,000 lx), LC-MS/MS; assay type: physicochemical; conditions: for main degradation product: sunlight irradiation (MKH-SUC also under shading); for photostability relative to MK-4: ethanol; for half-life at 1 µM: ethanol solution in quartz cells, read-out: half-life (t1/2) of degradation (converted)
Procedure: The relative irradiance of artificial sunlight at wavelengths of 300 to 800 nm is almost equal to that of natural sunlight, according to the manufacturer. […] MKH-SUC concentration decreased according to an apparent first order rate both with and without shading, although the rate of decrease was accelerated without shading. MKH-DMG and MKH-SUC were more photostable than MK-4 by ca. 50- and 3-fold, respectively.
as §2, §3

[7] = set-up: method as in PMID 7724483; conditions: physiological pH 7.4 ref 14; cited from earlier work
cultured epidermis = tested on: cultured epidermis; set-up: method as in doi:10.2772/23121; conditions: UVA irradiation ref 13; cited from earlier work
[8] = 1 µM in ethanol, artificial sunlight 12,000 lx, 25 °C
[9] = 1 µM in ethanol, shading (covered with aluminum foil during irradiation), 25 °C
[10] = artificial sunlight 12,000 lx, 25 °C

singlet oxygen generation [1] | intracellular ROS level (HaCaT cells [3]) | rate constant (k) of degradation ([5]; monochromatic light 279 nm) | rate constant (k) of degradation ([5]; monochromatic light 341 nm) | rate constant (k) of degradation ([5]; monochromatic light 373 nm) | rate constant (k) of degradation ([5]; monochromatic light 404 nm) | rate constant (k) of degradation ([5]; monochromatic light 435 nm) | apparent first order rate constant (k) of degradation [6, 8] | main degradation product ([6]; 1 µM in ethanol) | photostability relative to MK-4 [6, 10] | half-life at 1 µM [6, 8] | SMILES | delivery of MKH into HCC cells [2] | cell viability (HaCaT cells [4]) | also measured
little generation of singlet oxygen | no significant changes | 0.110 J^−1·cm^2 | 0.069 J^−1·cm^2 | 0.059 J^−1·cm^2 | 0.061 J^−1·cm^2 | 0.068 J^−1·cm^2 | 2.796 h⁻¹ | MKH-mono-SUC | ~3 fold | 14.9 min | CC(C)=CCC/C(C)=C/CC/C(C)=C/CC/C(C)=C/Cc1c(C)c(OC(=O)CCC(=O)O)c2ccccc2c1OC(=O)CCC(=O)O [MKH-SUC, menahydroquinone-4 1,4-bis-hemisuccinate] | more effectively than MK-4 | unaffected | apparent first order rate constant (k) of degradation [6, 9]: 0.883 h⁻¹; half-life at 1 µM [6, 9]: 47.1 min
little generation of singlet oxygen | – | – | – | – | – | – | – | – | – | – | COc1cc(O)c(C(=O)c2ccccc2)cc1S(=O)(=O)O [sulisobenzone, reference compound] | – | – | –
little generation of singlet oxygen | no significant changes | 0.146 J^−1·cm^2 | - ^b | - ^b | - ^b | - ^b | 0.167 h⁻¹ | MKH-mono-DMG | ca. 50 fold | 249 min | CC(C)=CCC/C(C)=C/CC/C(C)=C/CC/C(C)=C/Cc1c(C)c(OC(=O)CN(C)C)c2ccccc2c1OC(=O)CN(C)C [MKH-DMG, menahydroquinone-4 1,4-bis-N,N-dimethylglycinate hydrochloride] | more effectively than MK-4 | unaffected | partition coefficient (log P) [7]: 3.66; half-life energy (E1/2) of degradation ([5]; monochromatic light 341 nm): - ^b; half-life energy (E1/2) of degradation ([5]; monochromatic light 373 nm): - ^b; half-life energy (E1/2) of degradation ([5]; monochromatic light 404 nm): - ^b; half-life energy (E1/2) of degradation ([5]; monochromatic light 435 nm): - ^b; concentration change under shading ([6]; 1 µM in ethanol, shading, 25 °C): unchanged under shading
– | – | – | – | – | – | – | – | – | – | – | CC1=C(C/C=C(\C)CCC[C@H](C)CCC[C@H](C)CCCC(C)C)C(=O)c2ccccc2C1=O [vitamin K1] | – | – | phototoxicity against cultured epidermis (cultured epidermis): exhibits phototoxicity
